Molecules are shown by their SMILES. Activity calls are given as the source filed them. No cut-off for these calls is given here.

The target of assay [1] is T1, Fatty-acid amide hydrolase 1 (Homo sapiens, UniProt O00519).
T1 sequence (O00519 whole entry): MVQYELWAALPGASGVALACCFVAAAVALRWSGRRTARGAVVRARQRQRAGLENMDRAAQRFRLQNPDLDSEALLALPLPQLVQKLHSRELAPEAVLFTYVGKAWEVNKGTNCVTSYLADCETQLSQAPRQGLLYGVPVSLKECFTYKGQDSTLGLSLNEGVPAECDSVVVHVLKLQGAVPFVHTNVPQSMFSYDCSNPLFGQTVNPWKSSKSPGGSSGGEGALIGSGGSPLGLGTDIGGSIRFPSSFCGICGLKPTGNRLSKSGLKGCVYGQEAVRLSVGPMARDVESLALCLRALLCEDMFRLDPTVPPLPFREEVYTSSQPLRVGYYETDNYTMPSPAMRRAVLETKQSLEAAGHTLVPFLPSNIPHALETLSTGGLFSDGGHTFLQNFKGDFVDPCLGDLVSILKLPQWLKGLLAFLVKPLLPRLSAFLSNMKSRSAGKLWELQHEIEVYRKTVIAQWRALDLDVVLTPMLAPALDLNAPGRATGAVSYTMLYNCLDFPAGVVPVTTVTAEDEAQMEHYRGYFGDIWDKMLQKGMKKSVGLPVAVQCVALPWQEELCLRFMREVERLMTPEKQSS
Kind of assay: Inhibition of human FAAH expressed in human H4 cells. The assay is classed as cell-based.

The subject of assay [2] is Rattus norvegicus. Put plainly: Antinociceptive activity in Sprague-Dawley rat assessed inhibition of thermal stimulus-induced hind paw withdrawal at 1 mg/kg, iv after 32 mins. Format: functional, organism-based. Also noted: dose 1 mg/kg.
Assay [3] has as its system Rattus norvegicus. Put plainly: Antinociceptive activity in Sprague-Dawley rat assessed inhibition of thermal stimulus-induced hind paw withdrawal at 10 mg/kg, iv after 32 mins. The assay is classed as functional, organism-based. On the set-up: dose 10 mg/kg.
The target of assay [4] is T2, Fatty-acid amide hydrolase 1 (Homo sapiens) (UniProt O00519).
T2 sequence (whole entry): T1 sequence (O00519 whole entry)
Kind of assay: Inhibition of human FAAH-mediated anandamide hydrolysis expressed in human H4 cells assessed as reduction in initial reaction rate at 5 nM by fluorescence assay relative to vehicle control. On the set-up: scale not given: the % may be the effect or the level left. The assay is classed as cell-based.

The target in assay [5] is T1, Fatty-acid amide hydrolase 1. Put plainly: Competitive inhibition of human FAAH expressed in human H4 cells. The assay is classed as cell-based.
The subject of assay [6] is Rattus norvegicus. Kind of assay: Antinociceptive activity in iv dosed Sprague-Dawley rat assessed inhibition of thermal stimulus-induced hind paw withdrawal after 32 mins in presence of anandamide. Format: functional, organism-based.

As for `CCOc1ccc(NC(=O)O/N=C/c2ccccc2)cc1`, the IC50 (usually the point on the concentration scale where inhibition reaches its midpoint) in assay [1] was found to be 81 nM.
Molecule `CCCCOc1ccc(C(CC)NC(=O)Oc2cccc(C(F)(F)F)c2)cc1` (stereo not drawn) yielded an IC50 in assay [1] of 51 nM.
Still for that read-out and setting: the result for `CCCCCCCCCCCCOc1ccc(NC(=O)ON=C(C)C)cc1` reads 5 nM; that for `CCCCCCCCCCOc1ccc(NC(=O)O/N=C/c2ccccc2)cc1`, 0.35 nM.
Still for that read-out and setting: the figure for `CCCCOc1ccc(CNC(=O)Oc2ccccc2F)cc1` is 9.2 nM; for `CCCCCOc1ccc(NC(=O)O/N=C/c2ccc(F)cc2)cc1` it is 1.8 nM.
Same read-out and setting: the result for `CCCCCOc1ccc(NC(=O)O/N=C/c2cccnc2)cc1` reads 6.1 nM; that for `CCCCCCCCCCCCOc1ccc(NC(=O)O/N=C/c2ccccc2)cc1`, 2.4 nM; that for `CCc1ccc(-c2ccc(NC(=O)Oc3ccccc3F)cc2)cc1`, 810 nM.
Molecule `CCCCOc1ccc(NC(=O)ON=C(C)C)cc1` showed an IC50 in assay [1] of 28 nM.
On the same count and under the same terms, the result for `CCCCCCCCCCCOc1ccc(NC(=O)Oc2ccccc2)cc1` reads 1 nM.
On the same count and under the same terms, the figure for `CCCCOc1ccc(CNC(=O)Oc2cccc(C(F)(F)F)c2)cc1` is 40 nM; for `CCCCOc1ccc(C(CC)NC(=O)Oc2ccc(F)cc2)cc1` (stereo not drawn) it is 12 nM; for `CCCOc1ccc(NC(=O)O/N=C/c2ccc(F)cc2)cc1` it is 13 nM.
In assay [1], `CCCCCCCCCCOc1ccc(NC(=O)ON=C(C)C)cc1` registered an IC50 of 2.2 nM.
The same measure, in the same setting: the result for `CCCCCCCCCOc1ccc(NC(=O)ON=C(C)C)cc1` reads 2.1 nM; that for `CCCCCCOc1ccc(NC(=O)O/N=C/c2ccccc2)cc1`, 8 nM.
On the same count and under the same terms, the figure for `CCCCCCCCCCCCOc1ccc(NC(=O)Oc2ccccc2F)cc1` is 13 nM; for `CCCCCCCCCCCCOc1ccc(NC(=O)O/N=C/c2ccc(F)cc2)cc1` it is 2.1 nM.
Still for that read-out and setting: the result for `CCCCCCCCCCCOc1ccc(NC(=O)O/N=C/c2cccnc2)cc1` reads 0.15 nM.
`CCCCCCCCOc1ccc(NC(=O)O/N=C/c2ccccc2)cc1` displayed an IC50 in assay [1] of 0.43 nM.
The molecule `CCCCCCCCCCCOc1ccc(NC(=O)Oc2ccccc2F)cc1` registered a 50% inhibitory concentration (IC50) in assay [1] of 15 nM.
Still for that read-out and setting: the figure for `CCCCCCCCCCCOc1ccc(NC(=O)O/N=C/c2ccc(F)cc2)cc1` is 0.4 nM; for `CCCCCCCCOc1ccc(NC(=O)Oc2ccccc2F)cc1` it is 19 nM; for `CCCCCCCCOc1ccc(NC(=O)O/N=C/c2cccnc2)cc1` it is 0.8 nM.
On the same count and under the same terms, the result for `CCCOc1ccc(NC(=O)ON=C(C)C)cc1` reads 210 nM; that for `CCCCOc1ccc(C(CC)NC(=O)Oc2ccccc2F)cc1` (stereo not drawn), 7.7 nM; that for `CCCCOc1ccc(C(CC)NC(=O)Oc2ccc(F)cc2F)cc1` (stereo not drawn), 21 nM.
The same measure, in the same setting: the figure for `CCCCOc1ccc(CNC(=O)Oc2ccc(F)cc2)cc1` is 4.6 nM; for `CCOc1ccc(NC(=O)O/N=C/c2ccc(F)cc2)cc1` it is 46 nM.
In assay [1], `CCCCCOc1ccc(NC(=O)O/N=C/c2ccccc2)cc1` registered an IC50 of 3.5 nM.
Same read-out and setting: the result for `CCCCCCCCCCOc1ccc(NC(=O)Oc2ccccc2F)cc1` reads 9.2 nM; that for `CCCCCCCCCCOc1ccc(NC(=O)Oc2ccccc2)cc1`, 1.4 nM.
The same measure, in the same setting: the figure for `CCCCCCCOc1ccc(NC(=O)Oc2ccccc2)cc1` is 8.6 nM; for `CCCCCCOc1ccc(NC(=O)Oc2ccccc2F)cc1` it is 710 nM; for `CCCCCCOc1ccc(NC(=O)Oc2ccccc2)cc1` it is 31 nM.
In assay [1], `CCCCCCCOc1ccc(NC(=O)O/N=C/c2ccc(F)cc2)cc1` came in with an IC50 of 2.3 nM.
`CCCCCCOc1ccc(NC(=O)ON=C(C)C)cc1` returned an IC50 in assay [1] of 18 nM.
Consider `CCCCCCCCCCCCOc1ccc(NC(=O)O/N=C/c2cccnc2)cc1`, for which the IC50 in assay [1] was 0.35 nM.
Still for that read-out and setting: the figure for `CCCCCCCOc1ccc(NC(=O)Oc2ccccc2F)cc1` is 28 nM; for `CCCCOc1ccc(NC(=O)ON=C(C)C)cc1OC` it is 11000 nM; for `CCCCCCOc1ccc(NC(=O)O/N=C/c2cccnc2)cc1` it is 8.3 nM.
The same measure, in the same setting: the result for `CCCCOc1ccc(NC(=O)Oc2ccc(F)cc2)cc1` reads 120 nM; that for `CCCCCCCCCCOc1ccc(NC(=O)O/N=C/c2ccc(F)cc2)cc1`, 0.25 nM.
The same measure, in the same setting: the result for `CCCCOc1ccc(NC(=O)O/N=C/c2cccnc2)cc1` reads 14 nM.
As to `CCCCOc1ccc(CNC(=O)ON=C(C)C)cc1`, the IC50 in assay [1] is 570 nM.
On to `CCCOc1ccc(NC(=O)O/N=C/c2cccnc2)cc1`, for which, in assay [1], inhibition was half-maximal at 29 nM (IC50).
In assay [1], `CCCCCCCCOc1ccc(NC(=O)ON=C(C)C)cc1` gave an IC50 of 2.4 nM.
On the same count and under the same terms, the figure for `CCCCCCCOc1ccc(NC(=O)O/N=C/c2cccnc2)cc1` is 2.3 nM.
In assay [1], `CCCCOc1cccc(NC(=O)ON=C(C)C)c1` came in with an IC50 of 6300 nM.
On the same count and under the same terms, the figure for `CCCCCOc1ccc(NC(=O)ON=C(C)C)cc1` is 28 nM; for `CCCCCCCCCCOc1ccc(NC(=O)O/N=C/c2cccnc2)cc1` it is 0.35 nM; for `CCCCCCCOc1ccc(NC(=O)ON=C(C)C)cc1` it is 8.4 nM.
The same measure, in the same setting: the result for `CCCCCCCCCOc1ccc(NC(=O)O/N=C/c2ccccc2)cc1` reads 0.25 nM; that for `CCCCOc1ccc(C(CC)NC(=O)Oc2ccccc2)cc1` (stereo not drawn), 12 nM.
Still for that read-out and setting: the result for `CCCCOc1ccc(CNC(=O)Oc2ccc(F)cc2F)cc1` reads 8.7 nM; that for `CCCCCCCCOc1ccc(NC(=O)Oc2ccccc2)cc1`, 5.4 nM.
As for `CCCCOc1ccc(NC(=O)O/N=C/c2ccc(F)cc2)cc1`, the result in assay [2] and in assay [3] was inactive. Further, the Activity in assay [4] was 25%; in assay [6], “Dose-dependent effect”. Besides, the affinity in assay [5], expressed as Ki, was 30 nM. Moreover, in assay [1], the IC50 worked out at 2.2 nM.
`CCCCCCCCOc1ccc(NC(=O)O/N=C/c2ccc(F)cc2)cc1`: the IC50 in assay [1] was 0.27 nM.
Molecule `CCCCOc1ccc(CNC(=O)Oc2cccnc2)cc1` displayed an IC50 in assay [1] of 6.1 nM.
Same read-out and setting: the figure for `CCOc1ccc(NC(=O)ON=C(C)C)cc1` is 730 nM; for `CCCCOc1ccc(C(CC)NC(=O)Oc2ccc(OC)cc2)cc1` (stereo not drawn) it is 12 nM.
On the same count and under the same terms, the result for `CCCCOc1ccc(C(CC)NC(=O)Oc2cccc(N(C)C)c2)cc1` (stereo not drawn) reads 54 nM; that for `CCCOc1ccc(NC(=O)O/N=C/c2ccccc2)cc1`, 9.3 nM; that for `COc1ccc(NC(=O)O/N=C/c2ccccc2)cc1`, 290 nM.
The same measure, in the same setting: the result for `O=C(Nc1ccc(Oc2ccccc2)cc1)Oc1ccccc1F` reads 1300 nM; that for `CCCCCCCCCOc1ccc(NC(=O)O/N=C/c2cccnc2)cc1`, 0.65 nM.
In assay [1], `CCCCCCCOc1ccc(NC(=O)O/N=C/c2ccccc2)cc1` showed an IC50 of 8.6 nM.
Still for that read-out and setting: the figure for `Cc1nc(-c2ccccc2)c(-c2ccccc2)n1CCCCCCNC(=O)Oc1ccccc1F` is 1.7 nM; for `CCOc1ccc(NC(=O)O/N=C/c2cccnc2)cc1` it is 150 nM; for `CCCCOc1ccc(NC(=O)O/N=C/c2ccccc2)cc1` it is 8.5 nM.
Same read-out and setting: the result for `CCCCCCCCCCCOc1ccc(NC(=O)O/N=C/c2ccccc2)cc1` reads 0.45 nM.
Take `CCCCCCCCCCCOc1ccc(NC(=O)ON=C(C)C)cc1`: the IC50 in assay [1] was determined as 4.9 nM.
Same read-out and setting: the figure for `CCCCCCCCCOc1ccc(NC(=O)O/N=C/c2ccc(F)cc2)cc1` is 0.2 nM; for `CCCCOc1ccc(NC(=O)Oc2ccccc2F)cc1` it is 340 nM; for `CCCCCCCCCCCCOc1ccc(NC(=O)Oc2ccccc2)cc1` it is 1.8 nM.
Same read-out and setting: the result for `CCCCCCOc1ccc(NC(=O)O/N=C/c2ccc(F)cc2)cc1` reads 6.5 nM; that for `CCCCOc1ccc(CNC(=O)Oc2cccc(Cl)c2)cc1`, 12 nM.

Values taken from ChEMBL document CHEMBL1159055, “Oxime carbamate--discovery of a series of novel FAAH inhibitors” (Bioorg Med Chem Lett, 2010).
